Experimental data published in patent publication US5846988A, “Thiazolidine-4-carboxylic acid derivatives as cytoprotective agents” (Alcon Laboratories, Inc., priority 1997, dated 1998).
Read-outs that look alike come from different tables or passages of the source.

Tests used:
[1] = test system: bovine retinal pieces; experiment: Inhibition of lipid peroxide formation (TBARS) in hypoxic/reoxygenated bovine retinal pieces; type: cell-based; conditions: Bos taurus, hypoxia 1 h, test agent added after 50 min, reoxygenation 1 h; for inhibition at 100 µM: 0.1 mM, read-out: % Inhibition of TBARS Production (0.1 mM); for IC50: read-out: IC50 (inhibition of TBARS production)
Description: (§1) Evaluation of Cytoprotective Ability
Inhibition of lipid peroxide formation by representative compounds of the present invention as compared with the cysteine prodrug, 2-oxo-4-thiazolidine carboxylic acid, (Sigma Chemical Company, St Louis Mo.) is shown in Table 1 below. The cytoprotective effect of the compound was measured using bovine retinal pieces. Retinal tissues were incubated in hypoxic media for 1 h. After 50 min. of hypoxia the test agents were added to the media to allow 10 min. for the drug to diffuse into the tissue prior to reoxygenation. The vehicle by itself, was added to the non-drug group. Following the incubation period, tissue was reoxygenated for 1 h. Lipid peroxidation was assessed by the formation of thiobarbituric acid reacting substances (TBARS). The tissues were homogenized and added to the trichloroacetic acid-thiobarbituric acid reagent and heated in the presence of BHT. The homogenate was filtered and the absorbance of the supernant was measured spectrophotometrically. A double derivative technique was used to calculate the concentration of TBARS present in each sample. Quantiation was based on a molar extinction coefficient of 1.56×10^5.

[2] = test system: excised pigmented rabbit lenses; experiment: Inhibition of lens changes caused by oxidative damage (diquat-exposed excised pigmented rabbit lenses; GSH loss and MDA formation); type: cell-based; conditions: Oryctolagus cuniculus, 1 mM test compound, 1 mM diquat, 3 h at 37° C.
Description: as §1
Inhibition of lens changes caused by oxidative damage by representative compounds of the present invention as compared with the cysteine prodrug, 2-oxo-4-thiazolidine carboxylic acid, (Sigma Chemical Company, St Louis Mo.) is shown in Table 2 below. The cytoprotective effect was measured using excised pigmented rabbit lenses exposed to diquat using the method of Bhuyan (Free Radical Biology & Medicine, volume 12, pages 251-261, 1992). Normal lenses were extracted from the eyes immediately after sacrificing the pigmented rabbits. The lens were incubated in modified Krebs-Ringers bicarbonate medium containing 1 mM diquat dibromide monohydrate (Imperial Chemical Industries Ltd., London) and the test compound (1 mM). A non-test drug containing group was used as control. The lenses were incubated for 3 h at 37° C. in a shaking water bath. At the end of the incubation period each lens was removed and homogenated. Glutathione (GSH) and maliondialdehyde (MDA) levels were established by treating the supernatant with trichloracetic acid to precipitate proteins, and then using aliquots of the TCA supernatant to determine glutathione and MDA levels according to standard procedures. Degree of protection was measured as inhibition of GSH loss and inhibition of malondialdehyde formation.

[3] = read-out: % Inhibition GSH loss
[4] = read-out: % Inhibition MDA formation

IC50 [1] [nM]	SMILES	inhibition at 100 µM [1] [%]	inhibition at 1000 µM [2, 3] [%]	inhibition at 1000 µM [2, 4] [%]
	O=C1NC(C(=O)O)CS1 (stereo not drawn) [2-oxo-4-thiazolidine carboxylic acid, reference compound]	-38	9.4	28
50	CC(C)(C)c1cc(C2N[C@H](C(=O)O)CS2)cc(C(C)(C)C)c1O (stereo partly drawn) [Example 1, (4R)-2-(3,5-di-tert-butyl-4-hydroxyphenyl)-4-thiazolidine carboxylic acid]	95	40	76
3000	Cc1c(C)c2c(c(C)c1O)CCC(C)(C1N[C@H](C(=O)O)CS1)O2 (stereo partly drawn) [Example 2, (4R)-2-(6-hydroxy-2,5,7,8-tetramethyl-3,4-dihydro-2H-benzo[1,2-b]pyran-2-yl)-4-thiazolidine carboxylic acid]	90		
